Measured values as given in article PMC10312377, “A conserved epitope in VAR2CSA is targeted by a cross-reactive antibody originating from Plasmodium vivax Duffy binding protein” (Frontiers in Cellular and Infection Microbiology, 2023).

How the values were obtained:
[1] = test system: 3D10 MAb (raised against PvDBP region II); test: Indirect ELISA, titration of 3D10 against coated peptides; type: binding, mouse; conditions: for 3D10 recognition of peptide by ELISA: peptide coated at 5 µg/ml, titration of 3D10, OD relative to isotype control IgG1
Protocol: (§1) Immunoglobulin G (IgG) reactivity was measured using the enzyme-linked immunosorbent assay (ELISA). Briefly, 96-well Maxisorb plates (catalogue no. 439454; Thermo Fisher Scientific) were coated with synthetic peptides and recombinant full-length VAR2CSA diluted in 1 x PBS and incubated overnight at 4°C. Coated plates were blocked with 4% bovine serum albumin (BSA, catalogue no. A7906; Sigma-Aldrich) for 1 h at 37°C, then washed once with 1 x PBST (0.1% Tween 20). Plates were incubated with primary antibody for 1 h at room temperature (RT) and washed four times with 1 x PBST. The washed plates were incubated at RT for 1 h with 100 µl of HRP-conjugated secondary antibody (goat anti-human HRP, catalogue no. ab98624, Abcam; goat anti-mouse HRP, catalogue no. 170-6516, Bio-Rad, Mississauga, Canada; goat anti-rat HRP catalogue no. 62-9520). After four washes, 100 µl of 3,3′,5,5′-Tetramethylbenzidine (TMB, catalogue no. T0440; Sigma-Aldrich) were added and the reaction was stopped after 30 mins with an equal volume of H2SO4 (0.5 N). Human sera were screened once, in duplicate. The optical density (OD) values were converted to arbitrary units relative to the positive control sera included on each plate using the formula: AU = ODtest -ODbackground/ODpositive control pool – ODbackground)*100. The positive control pool refers to the OD of a pool of Colombian or Ugandan samples that were seroreactive against the peptides or VAR2CSA, respectively. The background is the OD with secondary antibody alone. The cut-off for seropositivity was based on the mean AU of sera from 12 individual Colombians not exposed to malaria plus 2 standard deviations; data to generate the cut-off are from two independent experiments. Only sera that were above the cut-off for VAR2CSA seropositivity were screened against CRP1 and SD1CLIPS.

[2] = Isothermal titration calorimetry (ITC) of peptides with CSA; type: binding, Bovine; conditions: 25°C; for Binding to CSA by ITC: PBS with 0.5% acetonitrile pH 7.4, 50 µM peptide in cell, 1 mM CSA in syringe, 25 injections of 1.5 µl
Protocol: Bovine tracheal CSA was purchased from Sigma-Aldrich (Cat no C9819). The energetics of the binding of peptides to CSA was performed at 25°C, on a MicroCal PEAQ-ITC calorimeter (Malvern Panalytical, Malvern, USA). For all experiments, samples were prepared in PBS containing 0.5% acetonitrile, pH 7.4. The reference cell was loaded with autoclaved milli-Q ultra-pure water; the sample cell was loaded with peptide solution (50 µM) and the syringe was filled with 1 mM CSA solution (based on a molecular weight of 50 kDa). In each titration, 25 injections of 1.5 μl of the CSA solution were made into the sample cell. A spacing of 150 s between each injection was applied to enable the system to reach equilibrium. The ITC data were analyzed with MicroCal-PEAQ-ITC Analysis Software v1.41. Binding parameters such as the ΔH (enthalpy change) and the ΔS (entropy change) were determined by fitting the experimental binding isotherms with the ‘one set of sites’ fitting model and GraphPad Prism software (version 9) was used to plot the results.

[3] = test system: rat-CRP1 antibodies (sera of CRP1-BSA immunized rats); test: Indirect ELISA, reactivity of rat anti-CRP1 sera against peptides; type: binding; conditions: peptide coated 5 µg/ml, rat sera 1/100 dilution
Protocol: as §1, with “The positive control pool refers to the OD of a pool of Colombian or Ugandan samples that were seroreactive against the peptides or VAR2CSA, respectively. The background is the OD with secondary antibody alone. The cut-off for seropositivity was based on the mean AU of sera from 12 individual Colombians not exposed to malaria plus 2 standard deviations; data to generate the cut-off are from two independent experiments. Only sera that were above the cut-off for VAR2CSA seropositivity were screened against CRP1 and SD1CLIPS.” left out

[4] = test system: 3D10 MAb binding to SD1CLIPS; test: Competition ELISA of 3D10 with SD1CLIPS as capture antigen; set-up: species or system mouse; conditions: 3D10 (1.72 µg/ml) pre-incubated 1 h RT with 10 µg/ml competing peptide; SD1CLIPS coated 1 µg/ml; compared with negative control peptide P10; 3 independent experiments
[5] = test system: 3D10 MAb binding to recombinant VAR2CSA (FCR3); test: Competition ELISA of 3D10 with VAR2CSA as capture antigen; set-up: species or system mouse; conditions: 3D10 (8.6 µg/ml) pre-incubated 1 h RT with 10 µg/ml competing peptide; VAR2CSA coated 1 µg/ml; 3 independent experiments
Protocol: as §1, with “The positive control pool refers to the OD of a pool of Colombian or Ugandan samples that were seroreactive against the peptides or VAR2CSA, respectively. The background is the OD with secondary antibody alone. The cut-off for seropositivity was based on the mean AU of sera from 12 individual Colombians not exposed to malaria plus 2 standard deviations; data to generate the cut-off are from two independent experiments. Only sera that were above the cut-off for VAR2CSA seropositivity were screened against CRP1 and SD1CLIPS.” left out

[6] = test system: P. falciparum CS2 infected erythrocytes (VAR2CSA-expressing) binding to CSA; test: Inhibition of binding assay (IBA), static binding of IEs to CSA; type: cell-based; conditions: CS2 IEs preincubated with soluble CSA 250 µg/ml, positive control; relative to AE-BSA control
Protocol: CRP1 was conjugated to BSA (as carrier protein) at the N-terminus through an azide-alkyne cycloaddition and outsourced commercially to ProSci (California, USA) for rat immunizations. As controls, an unrelated peptide conjugate (P5-BSA), the PAMVAC vaccine candidate (ID1-ID2a region from VAR2CSA) and the carrier protein conjugated to the linker (azido-ethanol (AE-BSA)) were included. Briefly, two female Sprague Dawley rats (~11 weeks old) were immunized intraperitoneally on day 0 with 75 µg of each antigen formulated in PBS and Complete Freund’s Adjuvant (CFA) followed by 3 booster immunizations with 50 µg of antigen in Incomplete Freund’s Adjuvant at 2-week intervals. Sera were collected 14 days after the final boost.
P. falciparum CS2 parasites were cultured in vitro as described ([Trager and Jensen, 1976]). Parasites were selected for adhering to CSA every 3-4 weeks to enrich for parasites expressing VAR2CSA. […]
The ability of anti-CRP1 IgG to block parasite binding to CSA in vitro was assessed by a static binding assay ([Gnidehou et al., 2014]). […] After washing, spots were fixed with glutaraldehyde and stained with Giemsa before imaging using a EVOS FL Auto microscope (Invitrogen) and the number of parasites bound per spot was analyzed using ImageJ. Percent inhibition of binding was calculated relative to the counts from the AE-BSA control.

Substance	3D10 recognition of peptide by ELISA [1]	Binding to CSA by ITC [2]	Recognition of peptide by rat-CRP1 antibodies (ELISA) [3]	also measured
KKYISEKKQEWDAQKTAYENAYVGKSASDLLKEN [CRP1-AAA]	completely abolished antibody recognition			
KAYISEKKQEWDKQKTKYENKYVGKSASDLLKEN [CRP1-K1510A]	partially reduced binding			
KQIWLKSKSKNKTEEKGKDYYQKEKYKANLEVSD [Scrambled CRP1 peptide, scrambled version of CRP1, reference compound]	poorly recognized	also bound to CSA	did not recognize	
KKYISEKKQEWDKQKTKYENKYVGKSASDLLKEN [CRP1]	recognizes	heat release after each CSA injection, consistent with CSA binding to CRP1	recognized	3D10 recognition of peptide by ELISA compared with SD1CLIPS ([1]; both peptides coated at 1 µg/ml, titration of 3D10): substantially weaker; Competition for 3D10 binding to SD1CLIPS [4]: significant loss in SD1CLIPS recognition; Competition for 3D10 binding to VAR2CSA [5]: same binding inhibition toward VAR2CSA as compared to SD1CLIPS; Binding to CSA by ITC in the presence of 100 mM NaCl ([2]; 50 µM peptide, 1 mM CSA, in the presence of 100 mM NaCl): abrogated
chondroitin sulfate A [Soluble CSA]				Percent inhibition of IE binding to CSA [6]: over 90%
